ChEMBL document CHEMBL1201862, “PubChem BioAssay data set” (2004)
Activity calls are given as the source filed them.

Legend:
A-375 = assay: MITF: Counter assay: A375 proliferation Measured in Cell-Based System Using Plate Reader - 2084-03_Inhibitor_Dose_DryPowder_Activity. [Related pubchem assays (depositor defined):AID488944]; format: functional; details: Homo sapiens
[1] = molecular target: T1, Microphthalmia-associated transcription factor (Homo sapiens, UniProt O75030); assay: reducers of TRPM1 reporter luminescence, concentration series – cell-based, SK-MEL-5, cherry-picked, set 3, MITF inhibitor project, dose response (AID 493073); format: functional;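 further: SK-MEL-5 melanoma cells with luciferase driven by the MITF target TRPM1 promoter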
T1 sequence (O75030 whole entry): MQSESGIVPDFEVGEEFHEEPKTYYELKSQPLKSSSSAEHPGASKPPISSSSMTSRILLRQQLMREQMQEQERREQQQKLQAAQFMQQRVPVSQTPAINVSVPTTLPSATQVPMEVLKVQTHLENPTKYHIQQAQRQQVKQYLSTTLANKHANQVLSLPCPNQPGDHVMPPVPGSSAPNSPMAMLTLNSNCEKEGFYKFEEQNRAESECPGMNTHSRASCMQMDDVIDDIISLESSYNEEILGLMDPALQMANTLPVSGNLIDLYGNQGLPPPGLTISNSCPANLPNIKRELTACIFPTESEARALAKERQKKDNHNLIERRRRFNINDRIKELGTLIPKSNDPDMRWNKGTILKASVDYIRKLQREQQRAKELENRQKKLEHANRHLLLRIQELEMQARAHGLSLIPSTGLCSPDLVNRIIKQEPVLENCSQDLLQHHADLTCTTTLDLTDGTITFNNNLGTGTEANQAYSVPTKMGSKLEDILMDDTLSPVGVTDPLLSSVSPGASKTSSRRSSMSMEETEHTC

[2] = molecular target: T2, Short transient receptor potential channel 4 (Mus musculus, UniProt Q9QUQ5); assay: calcium entry via TRPC4 opening agents – cell-based, HEK293 TRPC4/mu-opioid, Fluo-4 calcium, dose response (AID 434937); format: functional
T2 sequence (Q9QUQ5 whole entry): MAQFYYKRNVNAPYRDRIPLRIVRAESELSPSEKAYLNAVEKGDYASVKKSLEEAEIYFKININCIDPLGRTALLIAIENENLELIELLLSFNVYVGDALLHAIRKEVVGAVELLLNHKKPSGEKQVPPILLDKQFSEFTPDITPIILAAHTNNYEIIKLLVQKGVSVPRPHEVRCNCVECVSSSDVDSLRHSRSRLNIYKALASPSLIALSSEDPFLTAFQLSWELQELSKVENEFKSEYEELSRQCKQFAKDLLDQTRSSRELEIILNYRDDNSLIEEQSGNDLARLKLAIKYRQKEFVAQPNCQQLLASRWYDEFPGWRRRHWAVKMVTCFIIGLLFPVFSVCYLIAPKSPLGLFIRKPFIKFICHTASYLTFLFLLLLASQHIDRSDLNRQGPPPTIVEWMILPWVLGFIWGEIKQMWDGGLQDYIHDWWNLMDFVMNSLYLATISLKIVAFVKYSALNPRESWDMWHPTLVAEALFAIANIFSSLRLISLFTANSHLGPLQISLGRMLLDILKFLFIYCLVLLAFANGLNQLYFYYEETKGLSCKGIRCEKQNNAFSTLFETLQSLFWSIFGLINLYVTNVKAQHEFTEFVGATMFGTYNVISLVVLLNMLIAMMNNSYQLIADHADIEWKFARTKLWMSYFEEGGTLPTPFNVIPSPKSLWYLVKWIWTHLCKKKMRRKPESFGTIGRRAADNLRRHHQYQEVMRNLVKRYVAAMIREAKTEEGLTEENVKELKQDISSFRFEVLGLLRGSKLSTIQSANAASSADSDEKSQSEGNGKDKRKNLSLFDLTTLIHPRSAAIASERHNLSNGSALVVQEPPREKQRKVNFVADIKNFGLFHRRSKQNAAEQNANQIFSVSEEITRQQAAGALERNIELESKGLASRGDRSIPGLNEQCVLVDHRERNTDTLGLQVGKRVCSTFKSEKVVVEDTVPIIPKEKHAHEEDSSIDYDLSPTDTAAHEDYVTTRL

[3] = A Cell Based Secondary Assay To Explore Cytotoxicity of Compounds that Sensitize Mycobacterium Tuberculosis to Beta-Lactam Antibiotics.; format: functional
Escherichia coli [4] = assay: microbe, parasite or virus in culture
Escherichia coli [5] = assay: microbe, parasite or virus in culture; remark: listed apart in the source
Cytochrome P450 2C19 = Cytochrome P450 2C19 (Homo sapiens, UniProt P33261); assay: Cytochrome panel assay with activity outcomes. Panel member name: p450-cyp2c19 Compounds with AC50 equal or less than 10 uM are considered active; format: functional; details: read-out: AC50
Sequence of Cytochrome P450 2C19 (P33261 whole entry): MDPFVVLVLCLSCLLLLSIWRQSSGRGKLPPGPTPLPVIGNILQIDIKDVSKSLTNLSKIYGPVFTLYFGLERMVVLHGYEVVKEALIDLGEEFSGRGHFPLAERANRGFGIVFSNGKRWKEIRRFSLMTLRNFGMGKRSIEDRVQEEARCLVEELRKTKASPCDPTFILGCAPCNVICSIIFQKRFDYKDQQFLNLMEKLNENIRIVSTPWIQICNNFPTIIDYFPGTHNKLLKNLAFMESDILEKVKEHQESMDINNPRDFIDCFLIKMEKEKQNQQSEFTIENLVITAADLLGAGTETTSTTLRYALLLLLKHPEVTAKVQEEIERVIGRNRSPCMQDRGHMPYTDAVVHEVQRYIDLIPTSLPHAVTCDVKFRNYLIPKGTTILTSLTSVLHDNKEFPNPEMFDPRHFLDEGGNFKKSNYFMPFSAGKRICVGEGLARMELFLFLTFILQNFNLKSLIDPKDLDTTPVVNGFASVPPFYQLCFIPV

Cytochrome P450 2C9 = Cytochrome P450 2C9 (Homo sapiens, UniProt P11712)
Cytochrome P450 2D6 = Cytochrome P450 2D6 (Homo sapiens, UniProt P10635);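 further: CYP2D6 member of a cytochrome P450 panel assay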
Orexin receptor type 2 [6] = molecular target: T3, Orexin receptor type 2 (Homo sapiens, UniProt O43614); assay: Counterscreen assay for antagonists of the orexin 1 receptor (OX1R; HCRTR1): Fluorescence-based cell-based dose response assay for antagonists of the orexin 2 receptor (OX2R; HCRTR2), run by assay provider.; format: functional
T3 sequence (O43614 whole entry): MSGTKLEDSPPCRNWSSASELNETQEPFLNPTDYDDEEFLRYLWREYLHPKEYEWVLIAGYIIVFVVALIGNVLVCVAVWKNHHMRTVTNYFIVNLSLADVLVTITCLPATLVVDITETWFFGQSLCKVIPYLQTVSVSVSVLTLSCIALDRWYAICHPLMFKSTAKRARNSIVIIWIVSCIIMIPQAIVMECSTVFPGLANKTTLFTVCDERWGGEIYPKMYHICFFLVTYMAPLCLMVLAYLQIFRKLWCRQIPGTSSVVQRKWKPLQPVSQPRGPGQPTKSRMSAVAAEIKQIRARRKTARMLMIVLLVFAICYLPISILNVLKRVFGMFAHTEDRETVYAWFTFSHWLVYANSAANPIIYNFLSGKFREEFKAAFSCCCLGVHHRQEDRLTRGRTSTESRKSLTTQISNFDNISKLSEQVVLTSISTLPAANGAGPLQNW

Orexin receptor type 2 [7] = molecular target: T3, Orexin receptor type 2; assay: Counterscreen assay for antagonists of the orexin 1 receptor (OX1R; HCRTR1): Homogeneous Time Resolved Fluorescence (HTRF)-based cell-based dose response assay for antagonists of the orexin 2 receptor (OX2R; HCRTR2), run by assay provider.; format: functional
Jurkat = assay: blockers of NF-kB activation in T cells – Jurkat, luciferase reporter, luminescence, B- and T-cell, dose response (AID 489004); format: functional, cell-based; details: Homo sapiens;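 further: NF-kB luciferase reporter Jurkat cells stimulated with PMA plus ionomycin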
BJ [8] = assay: cells; format: functional, cell-based; details: Homo sapiens
[9] = molecular target: T4, Orexin/Hypocretin receptor type 1 (Homo sapiens, UniProt O43613); assay: Homogeneous Time Resolved Fluorescence (HTRF)-based cell-based high throughput dose response assay for antagonists of the orexin 1 receptor (OX1R; HCRTR1). [Related pubchem assays (depositor defined):AID434989, AID435008, AID463079, AID485270, AID492963, AID492964, AID492965, AID493232, AID504717, AID504718]; format: functional
T4 sequence (O43613 whole entry): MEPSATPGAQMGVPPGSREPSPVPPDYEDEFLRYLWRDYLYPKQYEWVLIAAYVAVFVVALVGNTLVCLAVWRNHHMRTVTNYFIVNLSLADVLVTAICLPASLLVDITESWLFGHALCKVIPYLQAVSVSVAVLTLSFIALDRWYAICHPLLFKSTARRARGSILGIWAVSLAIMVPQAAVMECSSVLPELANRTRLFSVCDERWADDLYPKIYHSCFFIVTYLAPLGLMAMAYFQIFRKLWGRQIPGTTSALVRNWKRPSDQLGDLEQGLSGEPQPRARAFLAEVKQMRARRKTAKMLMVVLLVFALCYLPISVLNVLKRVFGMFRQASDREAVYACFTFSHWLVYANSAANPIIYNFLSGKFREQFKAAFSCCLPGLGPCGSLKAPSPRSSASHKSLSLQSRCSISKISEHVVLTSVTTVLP

[10] = molecular target: T4, Orexin/Hypocretin receptor type 1; assay: Fluorescence-based cell-based high throughput dose response assay for antagonists of the orexin 1 receptor (OX1R; HCRTR1). [Related pubchem assays (depositor defined):AID434989, AID435008, AID463079, AID485270, AID492963, AID492964, AID492965, AID493232, AID504717, AID504718]; format: functional
BJ [11] = assay: BJ-TERT fibroblast viability loss – cell-based, RAS-independent, luminescence, dose response (AID 1933); format: functional; details: Homo sapiens
BJ [12] = assay: BJ-TERT-LT-ST fibroblast viability loss – cell-based, RAS-independent, luminescence, dose response (AID 1935); format: functional; details: Homo sapiens;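 further: BJ fibroblasts immortalized with TERT plus LT and ST oncogenes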
CHO-K1 = assay: (§1) Counterscreen for antagonists of the orexin 1 receptor (OX1R; HCRTR1): Homogeneous time resolved fluorescence (HTRF)-based cell-based dose response assay to identify antagonists of the parental CHO-K1 cell line. [Related pubchem assays (depositor defined):AID434989, AID435008, AID463079, AID485270, AID492963, AID492964, AID492965, AID493232, AID504699, AID504701]; format: functional; details: Cricetulus griseus
[13] = HEK-293T viability loss, compound-treated – cell-based, uHTS hits, cytotoxicity control for B/T-cell NF-kB inhibitor project, dose response (AID 489019); format: functional;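 further: IC50 reflects cytotoxicity as loss of cell viability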
[14] = DRD fibroblast viability loss – cell-based, non-viral oncogenic, luminescence, dose response (AID 1934); format: functional; details: Homo sapiens
[15] = as §1, with “Fluorescence-based” for “Homogeneous time resolved fluorescence (HTRF)-based”, “cell-based high throughput” for “cell-based”, “CHO” for “CHO-K1”; format: functional
[16] = molecular target: Peroxisome proliferator-activated receptor gamma/Nuclear receptor coactivator 1 (Homo sapiens, UniProt P37231); assay: (§2) TR-FRET dose response biochemical High Throughput Screening assay for agonists of the steroid receptor coactivator 1 (SRC-1) recruitment by the peroxisome proliferator-activated receptor gamma (PPAR gamma): non-selective agonists. [Related pubchem assays (depositor defined):AID1300, AID1808, AID504735, AID631]; format: protein assay
[17] = molecular target: Peroxisome proliferator-activated receptor gamma/Nuclear receptor coactivator 3 (Homo sapiens, UniProt P37231); assay: as §2, with “3 (SRC-3)” for “1 (SRC-1)”, “assays: 1301 (Confirmation screen.), 1048 (Primary screen.)]” for “assays (depositor defined):AID1300, AID1808, AID504735, AID631]”; format: functional
Sequence of Peroxisome proliferator-activated receptor gamma/Nuclear receptor coactivator 3 (P37231 whole entry): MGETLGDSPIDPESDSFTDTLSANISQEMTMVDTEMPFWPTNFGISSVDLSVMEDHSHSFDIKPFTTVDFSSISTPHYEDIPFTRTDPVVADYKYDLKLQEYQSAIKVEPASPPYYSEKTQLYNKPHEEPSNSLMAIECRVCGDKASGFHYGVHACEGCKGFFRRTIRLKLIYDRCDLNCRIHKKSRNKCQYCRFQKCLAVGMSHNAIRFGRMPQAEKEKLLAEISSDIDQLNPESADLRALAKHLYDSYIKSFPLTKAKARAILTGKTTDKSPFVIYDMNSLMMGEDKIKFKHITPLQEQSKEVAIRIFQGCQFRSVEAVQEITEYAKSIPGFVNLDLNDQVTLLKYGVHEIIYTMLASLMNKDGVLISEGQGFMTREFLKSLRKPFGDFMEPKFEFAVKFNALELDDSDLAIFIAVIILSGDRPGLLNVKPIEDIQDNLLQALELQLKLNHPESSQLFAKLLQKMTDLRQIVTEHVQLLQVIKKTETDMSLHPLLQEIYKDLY
Sequence of Peroxisome proliferator-activated receptor gamma/Nuclear receptor coactivator 3 (Q9Y6Q9 whole entry, further chain): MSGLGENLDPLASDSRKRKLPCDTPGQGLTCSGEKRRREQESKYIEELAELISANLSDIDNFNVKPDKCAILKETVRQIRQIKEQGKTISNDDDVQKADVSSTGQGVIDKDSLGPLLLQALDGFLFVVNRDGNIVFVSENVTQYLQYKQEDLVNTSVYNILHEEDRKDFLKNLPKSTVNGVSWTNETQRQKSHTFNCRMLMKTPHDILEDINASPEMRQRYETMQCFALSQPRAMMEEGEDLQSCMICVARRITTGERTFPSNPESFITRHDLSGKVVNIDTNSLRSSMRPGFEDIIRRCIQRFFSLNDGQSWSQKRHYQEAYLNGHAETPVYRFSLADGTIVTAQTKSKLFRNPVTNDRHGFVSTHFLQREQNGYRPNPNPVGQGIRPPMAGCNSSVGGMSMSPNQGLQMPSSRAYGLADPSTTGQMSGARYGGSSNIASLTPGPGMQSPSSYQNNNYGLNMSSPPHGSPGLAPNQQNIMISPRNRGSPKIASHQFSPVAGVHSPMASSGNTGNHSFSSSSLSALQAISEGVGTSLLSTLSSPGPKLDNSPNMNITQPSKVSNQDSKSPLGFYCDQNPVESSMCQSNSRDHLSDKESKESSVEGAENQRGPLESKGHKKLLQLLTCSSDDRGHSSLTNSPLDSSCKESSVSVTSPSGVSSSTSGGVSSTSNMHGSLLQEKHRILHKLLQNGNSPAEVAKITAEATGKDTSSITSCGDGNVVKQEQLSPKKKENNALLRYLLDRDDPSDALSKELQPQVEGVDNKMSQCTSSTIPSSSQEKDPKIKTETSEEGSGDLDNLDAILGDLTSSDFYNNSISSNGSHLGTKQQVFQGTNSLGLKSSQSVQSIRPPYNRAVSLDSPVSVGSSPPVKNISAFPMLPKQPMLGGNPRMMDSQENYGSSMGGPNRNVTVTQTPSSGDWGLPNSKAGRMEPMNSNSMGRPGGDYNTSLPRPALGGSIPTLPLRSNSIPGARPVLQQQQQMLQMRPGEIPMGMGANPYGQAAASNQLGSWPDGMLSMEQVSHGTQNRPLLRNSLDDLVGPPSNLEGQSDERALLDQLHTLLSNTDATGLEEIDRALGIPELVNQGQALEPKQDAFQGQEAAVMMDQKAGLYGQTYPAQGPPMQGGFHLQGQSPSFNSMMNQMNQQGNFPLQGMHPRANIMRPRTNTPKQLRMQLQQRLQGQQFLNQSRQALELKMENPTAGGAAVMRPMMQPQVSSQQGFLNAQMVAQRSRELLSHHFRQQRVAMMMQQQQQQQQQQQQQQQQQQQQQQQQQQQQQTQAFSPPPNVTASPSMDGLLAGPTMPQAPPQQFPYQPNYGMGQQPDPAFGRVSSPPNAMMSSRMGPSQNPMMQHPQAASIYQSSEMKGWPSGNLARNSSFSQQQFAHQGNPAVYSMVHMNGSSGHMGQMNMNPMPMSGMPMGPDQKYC

[18] = molecular target: Peroxisome proliferator-activated receptor gamma/Nuclear receptor coactivator 2 (Homo sapiens, UniProt P37231); assay: TR-FRET dose response biochemical High Throughput Screening assay for agonists of the steroid receptor coactivator 2 (SRC-2) recruitment by the peroxisome proliferator-activated receptor gamma (PPAR gamma): non-selective agonists. [Related pubchem assays: 1297, 1032 ]; format: functional
Sequence of Peroxisome proliferator-activated receptor gamma/Nuclear receptor coactivator 2 (P37231 whole entry): as the sequence (P37231 whole entry) above
Sequence of Peroxisome proliferator-activated receptor gamma/Nuclear receptor coactivator 2 (Q15596 whole entry, further chain): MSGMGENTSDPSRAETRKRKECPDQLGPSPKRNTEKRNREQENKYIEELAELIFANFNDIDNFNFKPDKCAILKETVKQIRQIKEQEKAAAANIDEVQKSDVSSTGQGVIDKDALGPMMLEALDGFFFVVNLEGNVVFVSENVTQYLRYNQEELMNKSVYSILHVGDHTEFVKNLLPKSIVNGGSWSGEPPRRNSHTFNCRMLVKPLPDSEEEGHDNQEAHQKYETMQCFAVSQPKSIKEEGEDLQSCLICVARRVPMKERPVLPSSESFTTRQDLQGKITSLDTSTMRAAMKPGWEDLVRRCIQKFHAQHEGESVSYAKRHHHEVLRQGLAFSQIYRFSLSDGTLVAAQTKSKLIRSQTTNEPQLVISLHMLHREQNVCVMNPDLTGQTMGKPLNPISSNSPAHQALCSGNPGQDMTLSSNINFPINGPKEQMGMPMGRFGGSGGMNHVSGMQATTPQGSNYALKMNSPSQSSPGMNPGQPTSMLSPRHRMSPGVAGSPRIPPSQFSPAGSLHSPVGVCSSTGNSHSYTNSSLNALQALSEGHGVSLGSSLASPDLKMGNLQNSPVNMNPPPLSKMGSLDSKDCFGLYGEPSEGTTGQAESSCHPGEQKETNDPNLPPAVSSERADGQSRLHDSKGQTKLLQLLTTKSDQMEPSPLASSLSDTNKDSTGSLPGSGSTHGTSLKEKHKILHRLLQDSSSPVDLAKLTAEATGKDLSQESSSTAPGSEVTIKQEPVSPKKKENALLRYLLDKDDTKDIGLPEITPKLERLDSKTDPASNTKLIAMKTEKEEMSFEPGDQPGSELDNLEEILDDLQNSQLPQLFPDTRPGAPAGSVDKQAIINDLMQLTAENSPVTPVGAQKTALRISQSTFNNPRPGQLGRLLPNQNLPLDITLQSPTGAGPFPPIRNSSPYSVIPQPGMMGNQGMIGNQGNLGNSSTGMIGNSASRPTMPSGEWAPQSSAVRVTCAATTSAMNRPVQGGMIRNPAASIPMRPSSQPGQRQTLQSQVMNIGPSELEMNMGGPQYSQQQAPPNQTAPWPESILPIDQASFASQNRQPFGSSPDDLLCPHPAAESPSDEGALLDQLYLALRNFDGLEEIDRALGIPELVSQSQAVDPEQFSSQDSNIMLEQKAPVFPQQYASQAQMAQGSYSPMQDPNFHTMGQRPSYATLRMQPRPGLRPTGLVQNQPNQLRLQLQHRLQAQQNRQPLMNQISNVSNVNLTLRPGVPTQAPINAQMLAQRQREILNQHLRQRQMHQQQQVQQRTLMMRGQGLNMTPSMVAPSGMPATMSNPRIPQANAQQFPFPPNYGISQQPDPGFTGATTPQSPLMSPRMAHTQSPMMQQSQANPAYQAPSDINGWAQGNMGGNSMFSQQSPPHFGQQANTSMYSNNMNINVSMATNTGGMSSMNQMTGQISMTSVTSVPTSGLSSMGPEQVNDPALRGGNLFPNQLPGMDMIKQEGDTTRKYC

Vero = assay: cells; format: functional, cell-based; details: Chlorocebus sabaeus
[19] = molecular target: Delta-type opioid receptor (Homo sapiens, UniProt P41143); assay: Counterscreen for agonists of heterodimerization of the mu 1 (OPRM1) and delta 1 (OPRD1) opioid receptors: Luminescence-based cell-based high throughput dose response assay to identify agonists of OPRD1 homodimerization. [Related pubchem assays (depositor defined):AID504326, AID504355, AID504692, AID504904, AID504905]; format: functional
[20] = molecular target: T2, Short transient receptor potential channel 4; assay: block of DAMGO-driven TRPC4 calcium entry – cell-based, HEK293 TRPC4/mu-opioid, Fluo-4 calcium, dose response (AID 434942); format: functional;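 further: potency of inhibitors blocking the TRPC4 calcium response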
Mu-type opioid receptor = Mu-type opioid receptor (Homo sapiens, UniProt P35372); assay: Counterscreen for agonists of heterodimerization of the mu 1 (OPRM1) and delta 1 (OPRD1) opioid receptors: Luminescence-based cell-based high throughput dose response assay to identify agonists of OPRM1 homodimerization.; format: functional;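 further: U2OS cells expressing OPRM1 and beta-arrestin as split beta-galactosidase partners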
Sequence of Mu-type opioid receptor (P35372 whole entry): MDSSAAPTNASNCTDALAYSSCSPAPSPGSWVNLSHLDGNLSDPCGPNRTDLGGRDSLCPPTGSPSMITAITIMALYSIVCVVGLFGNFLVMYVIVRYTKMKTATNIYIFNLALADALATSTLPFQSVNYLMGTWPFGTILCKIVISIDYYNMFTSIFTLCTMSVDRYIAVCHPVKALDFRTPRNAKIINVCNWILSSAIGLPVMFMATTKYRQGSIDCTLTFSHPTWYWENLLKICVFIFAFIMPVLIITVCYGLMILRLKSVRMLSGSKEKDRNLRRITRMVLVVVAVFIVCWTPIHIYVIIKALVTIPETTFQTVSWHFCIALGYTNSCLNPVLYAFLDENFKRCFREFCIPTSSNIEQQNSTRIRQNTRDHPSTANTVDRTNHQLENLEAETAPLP

[21] = molecular target: 5-hydroxytryptamine receptor 5A (Homo sapiens, UniProt P47898); assay: Counterscreen for agonists of OPRM1-OPRD1 heterodimerization: luminescence-based cell-based high throughput dose response assay to identify agonists of 5-hydroxytryptamine (serotonin) 5A receptor (HTR5A). [Related pubchem assays (depositor defined):AID504326, AID504355, AID504692, AID504904, AID504905]; format: functional

## CC(C)C1CC(CCNCc2ccc(N(C)C)cc2)(c2ccccc2)CCO1 (stereo not given)
A-375
  AC50: 20.7 µM (active)
[1]
  AC50: 11.1 µM (active)
[2]
  EC50: 6.68 µM (active)
[3]
  CC50: 33.3 µM (active)

## CC(C)(C)OC(=O)N1CCCC(C(=O)Nc2cccc(C(=O)NCCc3ccccc3)c2)C1 (stereo not given)
Escherichia coli [4]
  AC50: 322 µM (active)
Escherichia coli [5]
  AC50: 21.1 µM (active)

## O=C(Nc1nc2ccc(F)cc2s1)C1CCCO1 (stereo not given)
Cytochrome P450 2C19
  AC50: 25.1 µM (inconclusive)
Cytochrome P450 2C9
  AC50: 39.8 µM (inconclusive)
Cytochrome P450 2D6
  AC50: inconclusive

## O=C(NCc1ccccc1)c1ccc(CS(=O)(=O)c2ccccc2)o1
Escherichia coli [5]
  AC50: 28.6 µM (active)

## Cc1nn(-c2ccccc2)c(C)c1/C=N/NC(=O)c1cc(-c2cccs2)[nH]n1
Orexin receptor type 2 [6]
  IC50: 37 µM (inactive)
Orexin receptor type 2 [7]
  IC50: > 50 µM (inactive)
Jurkat
  IC50: 10.3 µM (active)
BJ [8]
  EC50: 0.79 µM (active)
[9]
  IC50: 2.99 µM (active)
[10]
  IC50: 3.99 µM (active)
BJ [11]
  EC50: 0.66 µM (inconclusive)
BJ [12]
  EC50: 0.601 µM (inconclusive)
CHO-K1
  IC50: > 66.2 µM (inactive)
[13]
  IC50: 9.45 µM (active)
[14]
  EC50: 0.644 µM (inconclusive)
[15]
  IC50: > 49.7 µM (inactive)

## Sc1nnc(-c2ccccn2)n1/N=C/c1ccc(-c2ccccc2Br)o1
[16]
  EC50: 2.75 µM (active)
[17]
  EC50: > 79.4 µM (not active)
[18]
  EC50: 2.83 µM (active)
Vero
  IC50: 23.4 µM (active)

## COc1ccc2c(c1)C=C(CN1CCC(CO)(CCc3ccccc3)CC1)CO2
[19]
  EC50: 67.7 µM (inactive)
[20]
  EC50: 2.11 µM (active)
Mu-type opioid receptor
  EC50: 85.9 µM (inactive)
[21]
  EC50: > 92.5 µM (inactive)
